In one assay the target is T1, human JAK2 (Homo sapiens, UniProt O60674).
T1 construct: catalytic domain (amino acids 808-1132; catalog number PV4210); GST; purchased Invitrogen PV4210
The assay is described as follows: JAK2 inhibition assay (polyGT substrate / Ulight-JAK1 peptide). Format: biochemical. As to conditions: recombinant human JAK2 catalytic domain; polyGT or Ulight-JAK1 peptide assay. Put shortly: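 Two JAK2 formats: a ^33P-ATP polyGT assay (1 μM cold ATP, 90 min, 30° C., cpm read-out) and a Ulight-JAK1 peptide assay read by Europium-anti-phosphotyrosine fluorescence after 60 min at room temperature.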

A further assay addresses T2, human JAK3 (Homo sapiens, UniProt P52333).
T2 construct: catalytic domain (amino acids 781-1124; catalog number PV3855); purchased Invitrogen PV3855
The experiment in a line: JAK3 inhibition assay. Format: biochemical. As to conditions: recombinant human JAK3 catalytic domain; polyGT substrate. Put shortly:
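Radiometric kinase assay: 0.5 ng JAK3 with 2.5 μg polyGT in Tris pH 7.5/MgCl2 buffer, 1 μM ATP plus 0.25 μCi 33P-γ-ATP, 1% DMSO, 45 min at 30 °C, stopped with phosphoric acid.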

The target in another assay is T3, human JAK1 (Homo sapiens, UniProt P23458).
T3 construct: catalytic domain, amino acids 866-1154; catalog number PV4774; purchased Invitrogen PV4774
The assay is described as follows: JAK1 inhibition assay (polyGT substrate / Ulight-JAK1 peptide). It counts as biochemical. As to conditions: recombinant human JAK1 catalytic domain; polyGT or Ulight-JAK1 peptide assay. Put shortly:
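Signal scaled between vehicle and 10 μM staurosporine. Radiometric polyGT reactions ran 45 min at 30 °C, counted after phosphoric-acid stop. Ulight peptide reactions ran 60 min at room temperature, fluorescence read after adding Eu-PT66 detection mix with EDTA.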

The subject of a further assay is CTLL-2 cell line. The assay is described as follows: CTLL2 viability assay. Format: cell-based. Particulars: Mus musculus, IL-2 dependent CTLL2 viability, 24 h, ATP-lite. From the text:
The protocol describes the methods to analyse the activity of compounds on their ability to sustain the IL2-dependent viability of CTLL2.
Final DMSO concentration was 0.1%.

In the next assay the test system is BA/F3 cell line. The experiment in a line: BA/F3 viability assay. As to conditions: Mus musculus, BaF3, 48 h, read-out: BA/F3 IC50.
Another assay has as its target T4, human TYK2 (Homo sapiens, UniProt P29597).
T4 construct: catalytic domain (amino acids 871-1187; catalog number 08-147); purchased Carna Biosciences 08-147
T4 sequence (P29597 871-1187): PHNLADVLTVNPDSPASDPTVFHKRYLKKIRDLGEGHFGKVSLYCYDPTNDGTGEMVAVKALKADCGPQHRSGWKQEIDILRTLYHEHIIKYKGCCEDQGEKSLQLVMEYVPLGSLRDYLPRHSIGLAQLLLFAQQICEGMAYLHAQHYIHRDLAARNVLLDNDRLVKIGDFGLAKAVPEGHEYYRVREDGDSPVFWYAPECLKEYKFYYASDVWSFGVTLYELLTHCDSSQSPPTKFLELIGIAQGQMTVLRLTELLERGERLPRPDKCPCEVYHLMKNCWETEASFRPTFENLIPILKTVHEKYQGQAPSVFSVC
The assay is described as follows: TYK2 inhibition assay. It counts as biochemical. As to conditions: recombinant human TYK2 catalytic domain, polyGT substrate. Put shortly:
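Radiometric kinase reaction run 90 min at 30 °C, stopped with phosphoric acid, washed and scintillation-counted.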

T2 sequence (P52333 781-1124): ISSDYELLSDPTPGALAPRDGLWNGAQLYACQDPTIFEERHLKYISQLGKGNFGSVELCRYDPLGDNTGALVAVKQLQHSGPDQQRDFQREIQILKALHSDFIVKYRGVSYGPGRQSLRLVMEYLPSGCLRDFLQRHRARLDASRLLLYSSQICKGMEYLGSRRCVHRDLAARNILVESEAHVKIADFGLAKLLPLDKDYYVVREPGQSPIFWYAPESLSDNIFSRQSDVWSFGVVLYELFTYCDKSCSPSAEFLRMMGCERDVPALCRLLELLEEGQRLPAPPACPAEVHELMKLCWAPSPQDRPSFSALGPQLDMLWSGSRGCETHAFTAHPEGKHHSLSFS
T3 sequence (P23458 866-1154): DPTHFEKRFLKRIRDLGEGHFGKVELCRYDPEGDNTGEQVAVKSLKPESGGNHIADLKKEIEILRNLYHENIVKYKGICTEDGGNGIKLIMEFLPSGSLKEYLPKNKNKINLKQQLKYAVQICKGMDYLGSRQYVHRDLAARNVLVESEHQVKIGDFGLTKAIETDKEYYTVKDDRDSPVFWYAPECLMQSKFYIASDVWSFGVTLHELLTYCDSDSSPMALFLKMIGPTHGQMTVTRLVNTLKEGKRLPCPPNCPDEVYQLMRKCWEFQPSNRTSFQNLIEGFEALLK
T1 sequence (O60674 808-1132): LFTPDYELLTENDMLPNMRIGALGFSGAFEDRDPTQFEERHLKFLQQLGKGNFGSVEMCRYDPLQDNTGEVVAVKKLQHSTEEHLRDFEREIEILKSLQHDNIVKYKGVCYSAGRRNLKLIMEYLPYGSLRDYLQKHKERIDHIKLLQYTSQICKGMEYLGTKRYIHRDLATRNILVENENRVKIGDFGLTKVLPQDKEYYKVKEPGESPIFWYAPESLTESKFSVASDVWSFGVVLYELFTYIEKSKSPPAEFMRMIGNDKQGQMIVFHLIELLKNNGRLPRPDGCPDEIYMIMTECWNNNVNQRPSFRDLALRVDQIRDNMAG

Turning to `CCc1cc(CN(CC#N)S(C)(=O)=O)cc(F)c1N(C)c1cc2c(cn1)ncn2C` [Compound 357, N-Cyanomethyl-N-{3-ethyl-5-fluoro-4-[methyl-(1-methyl-1H-imidazo[4,5-c]pyridin-6-yl)-amino]-benzyl}-methanesulfonamide], the IC50 was 0.01 to 100 nM on human JAK2; 0.01 to 100 nM on human JAK3; 0.01 to 100 nM on human JAK1; more than 1000 nM in the assay on CTLL-2 cell line; 1000 to 5000 nM with BA/F3 cell line; 0.01 to 100 nM on human TYK2.
Consider `CN(c1cc2c(cn1)ncn2C)c1ccc(CN(C)S(C)(=O)=O)cc1F` [Compound 358, N-{3-Fluoro-4-[methyl-(1-methyl-1H-imidazo[4,5-c]pyridin-6-yl)-amino]-benzyl}-N-methyl-methanesulfonamide], for which the IC50 at human JAK2 is 0.01 to 100 nM; at human JAK3, 101 to 500 nM; at human JAK1, 0.01 to 100 nM; in the assay with CTLL-2 cell line it was more than 1000 nM; in the assay on BA/F3 cell line, more than 5000 nM; on human TYK2, 101 to 500 nM.
Take `CN(c1cc2c(cn1)ncn2C)c1ccc(C2CN(C(=O)OC(C)(C)C)C2)cc1OC(F)F` [Compound 362, 3-{3-Difluoromethoxy-4-[methyl-(1-methyl-1H-imidazo[4,5-]pyridin-6-yl)-amino]-phenyl}-azetidine-1-carboxylic acid tert-butyl ester]: the IC50 on human JAK2 was more than 1000 nM; on human JAK3 it was more than 1000 nM; at human JAK1 it was 501 to 1000 nM; in the assay with CTLL-2 cell line, more than 1000 nM; in the assay on BA/F3 cell line, more than 5000 nM; at human TYK2, more than 1000 nM.
For the molecule `CN(c1cc2c(cn1)ncn2C)c1ccc(C2CN(CC(F)(F)F)C2)cc1OC(F)F` [Compound 364, {2-Difluoromethoxy-4-[1-(2,2,2-trifluoro-ethyl)-azetidin-3-yl]-phenyl}-methyl-(1-methyl-1H-imidazo[4,5-c]pyridin-6-yl)-amine], the IC50 at human JAK2 is 101 to 500 nM; at human JAK3, 101 to 500 nM; at human JAK1, 0.01 to 100 nM; in the assay with CTLL-2 cell line, more than 1000 nM; in the assay with BA/F3 cell line, more than 5000 nM; on human TYK2 it was more than 1000 nM.
`CN(c1cc2c(cn1)ncn2C)c1ccc(C2CN(S(=O)(=O)N(C)C)C2)cc1OC(F)F` [Compound 369]: the IC50 is 101 to 500 nM on human JAK2; 101 to 500 nM on human JAK3; 0.01 to 100 nM on human JAK1; more than 1000 nM in the assay on CTLL-2 cell line; 1000 to 5000 nM with BA/F3 cell line; 101 to 500 nM on human TYK2.
With `CN(c1cc2c(cn1)ncn2C)c1ccc(C2CN(S(=O)(=O)C(F)F)C2)cc1OC(F)F` [Compound 370, {4-[1-(Difluoro-methanesulfonyl)-azetidin-3-yl]-2-difluoromethoxy-henyl}-methyl-(1-methyl-1H-imidazo[4,5-c]pyridin-6-yl)-amine], the IC50 on human JAK2 was 0.01 to 100 nM; on human JAK3, 0.01 to 100 nM; on human JAK1 it was 0.01 to 100 nM; in the assay on CTLL-2 cell line, more than 1000 nM; with BA/F3 cell line, 1000 to 5000 nM; on human TYK2, 101 to 500 nM.
On to `CCc1cc(CNS(=O)(=O)N(C)C)ccc1N(C)c1cc2c(cn1)ncn2C` [Compound 375, Dimethyl amino-N-{3-Ethyl-4-[methyl-(1-methyl-1H-imidazo[4,5-c]pyridin-6-yl)-amino]-benzyl}-sulfonamide], for which the IC50 at human JAK2 was 0.01 to 100 nM; at human JAK3 it was 101 to 500 nM; at human JAK1 it was 0.01 to 100 nM; with CTLL-2 cell line, more than 1000 nM; in the assay with BA/F3 cell line, 1000 to 5000 nM; at human TYK2, 101 to 500 nM.
On to `CCc1cc(CNS(=O)(=O)NC)ccc1N(C)c1cc2c(cn1)ncn2C` [Compound 376, Methyl amino-N-{3-Ethyl-4-[methyl-(1-methyl-1H-imidazo[4,5-c]pyridin-6-yl)-amino]-benzyl}-sulfonamide], for which the IC50 at human JAK2 is 0.01 to 100 nM; at human JAK3, 101 to 500 nM; on human JAK1 it was 0.01 to 100 nM; in the assay on CTLL-2 cell line, more than 1000 nM; in the assay on BA/F3 cell line it was 1000 to 5000 nM; at human TYK2, 101 to 500 nM.
`CCc1cc(CNC(=O)C2CCC(F)(F)CC2)ccc1N(C)c1cc2c(cn1)ncn2C` [Compound 377, 4,4-Difluoro-cyclohexanecarboxylic acid 3-ethyl-4-[methyl-(1-methyl-1H-imidazo[4,5-c]pyridin-6-yl)-amino]-benzylamide]: the IC50 at human JAK2 is more than 1000 nM; on human JAK3, more than 1000 nM; at human JAK1 it was 0.01 to 100 nM; with CTLL-2 cell line, more than 1000 nM; in the assay on BA/F3 cell line it was more than 5000 nM; at human TYK2, more than 1000 nM.
As to `CCc1cc(CNCC(F)F)ccc1N(C)c1cc2c(cn1)ncn2C` [Compound 379], the IC50 at human JAK2 was 101 to 500 nM; at human JAK3, 101 to 500 nM; on human JAK1 it was 0.01 to 100 nM; with CTLL-2 cell line, more than 1000 nM; in the assay on BA/F3 cell line, more than 5000 nM; at human TYK2, 101 to 500 nM.
With `CCc1cc(CNCC(F)(F)F)ccc1N(C)c1cc2c(cn1)ncn2C` [Compound 380], the IC50 at human JAK2 was 0.01 to 100 nM; on human JAK3 it was 101 to 500 nM; on human JAK1 it was 0.01 to 100 nM; in the assay on CTLL-2 cell line it was more than 1000 nM; in the assay with BA/F3 cell line it was 1000 to 5000 nM; on human TYK2, 101 to 500 nM.
Consider `CCc1cc(CN2CC(C#N)C2)ccc1N(C)c1cc2c(cn1)ncn2C` [Compound 381, 1-{3-Ethyl-4-[methyl-(1-methyl-1H-imidazo[4,5-c]pyridin-6-yl)-amino]-enzyl}-azetidine-3-carbonitrile], for which the IC50 at human JAK2 was 101 to 500 nM; at human JAK3, more than 1000 nM; at human JAK1 it was 0.01 to 100 nM; in the assay with CTLL-2 cell line, more than 1000 nM; in the assay with BA/F3 cell line it was more than 5000 nM; on human TYK2, 501 to 1000 nM.
Consider `CCc1cc(C2CCN(S(C)(=O)=O)CC2)ncc1N(C)c1cc2c(cn1)ncn2C` [Compound 383, (4-Ethyl-1′-methanesulfonyl-1′,2′,3′,4′,5′,6′-hexahydro-[2,4′]bipyridinyl-5-yl)-methyl-(1-methyl-1H-imidazo[4,5-c]pyridin-6-yl)-amine], for which the IC50 at human JAK2 was 101 to 500 nM; at human JAK3 it was 501 to 1000 nM; at human JAK1, 0.01 to 100 nM; in the assay on CTLL-2 cell line, more than 1000 nM; with BA/F3 cell line, 1000 to 5000 nM; on human TYK2 it was 501 to 1000 nM.
For `CCc1cc(C2(C#N)CC2)ccc1N(C)c1cc2c(cn1)ncn2C` [Compound 385, 1-{3-Ethyl-4-[methyl-(1-methyl-1H-imidazo[4,5-c]pyridin-6-yl)-amino]-phenyl}-cyclopropanecarbonitrile], the IC50 on human JAK2 was 0.01 to 100 nM; on human JAK3 it was 0.01 to 100 nM; at human JAK1, 0.01 to 100 nM; with CTLL-2 cell line, more than 1000 nM; in the assay with BA/F3 cell line it was 1000 to 5000 nM; at human TYK2, 0.01 to 100 nM.
`CCc1cc(C(CC#N)NS(C)(=O)=O)ccc1N(C)c1cc2c(cn1)ncn2C` (stereo not drawn) [Compound 387, N-(2-Cyano-1-{3-ethyl-4-[methyl-(1-methyl-1H-imidazo[4,5-c]pyridin-6-yl)-amino]-phenyl}-ethyl)-methanesulfonamide]: the IC50 at human JAK2 was 101 to 500 nM; at human JAK3 it was 101 to 500 nM; at human JAK1, 0.01 to 100 nM; with CTLL-2 cell line, more than 1000 nM; with BA/F3 cell line, more than 5000 nM; on human TYK2, 101 to 500 nM.
Turning to `CCc1cc(CN(CC#N)S(C)(=O)=O)ccc1N(C)c1cc2c(cn1)ncn2C` [Compound 388, N-Cyanomethyl-N-{3-ethyl-4-[methyl-(1-methyl-1H-imidazo[4,5-c]pyridin-6-yl)-amino]-benzyl}-methanesulfonamide], the IC50 was 0.01 to 100 nM on human JAK2; 0.01 to 100 nM on human JAK3; 0.01 to 100 nM at human JAK1; more than 1000 nM with CTLL-2 cell line; 1000 to 5000 nM in the assay on BA/F3 cell line; 0.01 to 100 nM on human TYK2.
Regarding `CCc1cc(C2(CC#N)COC2)ccc1N(C)c1cc2c(cn1)ncn2C` [Compound 389, (3-{3-Ethyl-4-[methyl-(1-methyl-1H-imidazo[4,5-c]pyridin-6-yl)-amino]-phenyl}-oxetan-3-yl)-acetonitrile], the IC50 at human JAK2 was 0.01 to 100 nM; on human JAK3, 0.01 to 100 nM; at human JAK1, 0.01 to 100 nM; with CTLL-2 cell line it was more than 1000 nM; in the assay on BA/F3 cell line it was more than 5000 nM; at human TYK2, 0.01 to 100 nM.

For the origin of these results see US20130217664A1, “NOVEL COMPOUNDS USEFUL FOR THE TREATMENT OF DEGENERATIVE AND INFLAMMATORY DISEASES” (priority 2012, published 2013).
